Assay results reported in US11925643B2, “Toll-like receptor 4 (TLR4) inhibitors and use thereof” (MOR RESEARCH APPLICATIONS LTD., priority 2018, dated 2024).
Residues, ends and D or L forms follow the SMILES beside them.

How the values were obtained:
TLR4 = target: T1, TLR4 (Mus musculus, UniProt Q9QUK6); assay: TLR4 protein level by Western blot in hypoxic cardiomyocytes; type: cell-based; conditions: 20 μM, hypoxic conditions
T1 construct: endogenous in cells; host or cells: primary cardiomyocytes under hypoxia
T1 sequence (Q9QUK6 26-835): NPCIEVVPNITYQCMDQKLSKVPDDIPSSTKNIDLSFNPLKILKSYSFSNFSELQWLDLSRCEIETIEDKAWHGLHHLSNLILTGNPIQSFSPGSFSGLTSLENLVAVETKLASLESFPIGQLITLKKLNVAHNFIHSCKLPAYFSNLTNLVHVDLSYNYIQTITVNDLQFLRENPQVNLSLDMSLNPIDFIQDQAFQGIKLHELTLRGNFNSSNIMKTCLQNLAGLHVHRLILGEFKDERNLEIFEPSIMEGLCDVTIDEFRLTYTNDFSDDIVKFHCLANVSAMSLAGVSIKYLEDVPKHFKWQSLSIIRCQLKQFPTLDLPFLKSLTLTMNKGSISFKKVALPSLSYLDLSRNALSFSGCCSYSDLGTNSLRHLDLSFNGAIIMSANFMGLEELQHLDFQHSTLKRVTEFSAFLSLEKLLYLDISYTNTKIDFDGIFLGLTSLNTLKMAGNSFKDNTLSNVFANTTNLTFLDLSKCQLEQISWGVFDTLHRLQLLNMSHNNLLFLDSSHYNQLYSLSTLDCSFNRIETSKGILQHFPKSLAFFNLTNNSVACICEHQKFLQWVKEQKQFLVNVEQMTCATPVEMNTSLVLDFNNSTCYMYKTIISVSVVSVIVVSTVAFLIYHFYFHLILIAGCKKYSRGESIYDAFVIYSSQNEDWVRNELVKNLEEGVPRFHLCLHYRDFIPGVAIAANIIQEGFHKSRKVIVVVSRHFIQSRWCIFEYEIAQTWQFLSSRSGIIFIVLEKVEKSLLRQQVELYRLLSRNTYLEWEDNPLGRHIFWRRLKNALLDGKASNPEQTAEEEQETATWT
Protocol: Frozen tissue/cell cultures of liver or heart were pulverized under liquid nitrogen and placed in a homogenization buffer ([…] phosphate buffer, […] sucrose, […] EDTA, […] phenylmethylsulfonyl fluoride (PMSF), and 0.1% vol/vol tergitol, pH 7.5). Myocytes from cell cultures were homogenized in lysis buffer.
Homogenates were centrifuged at 12K rpm for 10 minutes at 4° C., the supernatant was isolated, and protein levels were visualized by immunoblotting with antibodies. Briefly, proteins (60 μg/sample) were separated using SDS-PAGE gel (12%-15%) under denaturing conditions and electro-transferred (blotted) onto nitrocellulose (Bio-Rad) for 1 hour at 100 V. Membranes were blocked with 5% nonfat milk in Tris-buffered saline with 0.1% Tween® 20 (TBST) for 1 hour at room temperature. Primary antibodies were used at a 1:200-1:1000 concentration in TBST with 5% nonfat milk overnight at 4° C. Immunodetection of β-actin/GPDH was performed as an internal control. Dye 800/680 secondary antibodies were added at a concentration of 1:15000 for 1 hour at room temperature (LI-COR® Biosciences, NE, USA). Detection was carried out with LI-CORE® Odyssey® imaging system. Quantification of signals was carried out with the Odyssey® program. […]

C57BL mice [1] = assay: Serum markers CK, LDH, troponin and GOT after LAD ligation; type: in vivo; conditions: 0.3 mg/kg IV one hour after ligation
C57BL mice [2] = assay: Survival after ischemia induction (MI mice model); type: in vivo; conditions: 0.3 mg/kg 1 hour after ischemia induction; 7 days; 12 mice
Protocol: Mice were anesthetized (with a mixture of 100 mg/kg ketamine and 10 mg/kg xylazine), intubated and ventilated with air until spontaneous breathing commenced. The left anterior descending artery (LAD) was ligated with one single stitch, forming an ischemia that can be observed almost immediately. By closing the LAD, no further blood flow is permitted in that area, while the surrounding myocardial tissue is almost not affected. This surgical procedure imitates the pathobiological and pathophysiological aspects occurring in infarction-related myocardial ischemia.
Real time reverse transcriptase PCR (RT-qPCR) was conducted to identify the effect of a disclosed decoy peptide on TLR-mediated induction of the inflammatory cytokine TNF-α. The effect of an exemplary decoy peptide PM6 (0.3 mg/kg; administered 1 hour after MI induction) on TNF-α mRNA expression in mice myocardium was assessed 24 h and 7 days after ischemia induction.
On the other hand, 5 out of 12 untreated mice died, which accounts for a survival rate of 58% after ischemia for the untreated mice.

TLR2 mRNA = TLR2 mRNA level by RT-qPCR in hypoxic cardiomyocytes (negative control); type: cell-based; conditions: hypoxic conditions
Protocol: Real-time RT-PCR experiments were performed in duplicates on an ABI 7900 instrument (Applied Biosystems™) using Taqman™ Master Mix (Applied Biosystems™). The average threshold cycles (Ct) of the duplicates were used to calculate the relative expression levels of the following genes: TLR4 (Applied Biosystems™ assay primer ID: Mm00569848_m1 Tlr4), TLR2 (assay primer ID: Mm01769726_m1 Tlr2), TNF-α (assay primer ID: Mm00443260_g1 Tnf) and IL-1β (assay primer ID: Mm00434228_m1 II1b) in vitro and in vivo following hypoxia or ischemia, respectively. The reference gene was TBP and the primer used was derived from mouse TATA-box binding protein (Applied Biosystems™ assay primer ID: Mm00446973_m1 Tbp). Amounts of TLR2, TLR4, TNF-α and IL-1β mRNAs in each sample were calculated relative to TBP mRNA, based on the corresponding Cts, as Relative Quantity (RQ) values, and normalized taking as 1 a randomly selected sample of the control group (TBP mRNA). Calculation were performed using the Applied Biosystems Analysis™ software (StepOnePlus V2.2.2). All mRNA scores are presented in arbitrary units.
Next, peptidomimetics of SEQ ID NOs:1 and 2 were tested for their ability to affect the expression of TLR4. The level of TLR4 mRNA was measured by real-time reverse transcriptase polymerase chain reaction (RT-qPCR) method as described in Materials and Methods. […]

| SMILES | decrease of TLR4 protein expression (TLR4) [fold] | blood level of CK (C57BL mice [1]; 1 week) | blood level of LDH (C57BL mice [1]; 1 week) | level of GOT (C57BL mice [1]; 24 h and 7 days) | blood level of CK (C57BL mice [1]; 24 hours) | blood level of LDH (C57BL mice [1]; 24 hours) | survival rate (C57BL mice [2]) [%] | decrease of TLR4 protein expression relative to PM6 (TLR4; positive control) | TLR2 mRNA expression level (TLR2 mRNA) |
| --- | --- | --- | --- | --- | --- | --- | --- | --- | --- |
| CCCCCCCCNc1nc(=O)n(Cc2ccccc2)cc1C [PM6, 1-benzyl-5-methyl-4-(octylamino)pyrimidin-2(1H)-one] | 7.6 | very impressive down regulation | very impressive down regulation | did not changed dramatically | very impressive down regulation | very impressive down regulation | 100 |  |  |
| CC[C@H](C)[C@H](NC(C)=O)C(=O)N[C@H](C(=O)N[C@@H](Cc1ccccc1)C(=O)N[C@@H](C)C(N)=O)C(C)C [SEQ ID NO:1, (2S,3S)-2-acetamido-N-((S)-1-(((S)-1-(((S)-1-amino-1-oxopropan-2-yl)amino)-1-oxo-3-phenylpropan-2-yl)amino)-3-methyl-1-oxobutan-2-yl)-3-methylpentanamide] (Ac-IVFA-NH2) |  |  |  |  |  |  |  | same extent | relatively unaffected |
